Experimental data from patent US20040247586A1, “Parkin-associated complex for protecting post-mitotic neurons from excitotoxicity and uses thereof” (priority 2003, published 2004).

Experiments:
Format in all cases: cell-based, mouse
[1] = system: cerebellar granule cells from P6 mice; experiment: parkin overexpression in kainate-treated cerebellar granule cells, cyclin E by Western blot / immunofluorescence / RT-PCR; conditions: kainate 500 μM for 24 h
Experimental: Cerebellar granule cells from post-natal day 6 (P6) mice were transfected in suspension with a bicistronic expression plasmid for wild-type parkin (along with GFP) or with vector (GFP alone), cultured at a density of 75,000 cells/cm^2 for 72 h, and then treated with or without 500 μM kainate for 24 h. (A) Cells were extracted directly with loading buffer, and lysates were analyzed by Western blotting, as indicated. (B-M) Granule cell cultures were fixed, stained with a specific antibody against cyclin E, and then visualized by fluorescence microscopy for cyclin E (red) and GFP (green). […]
Cerebellar granule neurons from P6 mice were purified and transfected essentially as described (Scheiffele et al., Neuroligin expressed in nonneuronal cells triggers presynaptic development in contacting axons. Cell, 101:657-69, 2000). […] Cells were treated for 24 h with or without kainate (250 or 500 μM as indicated; Sigma) or MPP^+ (1 or 10 μM as indicated; Sigma), stained for 20 min with 0.5 μg/ml Hoechst 33342 (Sigma), and visualized by fluorescence microscopy. For granule cell assays, at least 100 cells in two 20× fields were scored in duplicate for GFP and/or Hoechst signal. […] Cells were washed, incubated for 1 h at room temperature with appropriately-labeled secondary antibodies, and visualized by fluorescence microscopy. […]

[2] = system: E13.5 primary culture midbrain dopamine neurons; experiment: parkin siRNA knockdown in primary midbrain dopamine neuron cultures with kainate or MPP+, immunofluorescence and Hoechst
Experimental: Dissociated midbrain cultures from El 3.5 mice were prepared as described (see Examples), transfected with 25 nM parkin or control (SERT) siRNA, and treated for 24 h with 250 μM kainate (A-X) or 1 μM MPP^+ (U—X). Cells were treated with Hoechst dye, fixed, and stained with rabbit polyclonal antibodies against either mouse parkin or cyclin E (green) and a rat monoclonal antibody against DAT (red). Immunostaining and apoptotic nuclei were visualized by fluorescence microscopy. Arrows point to examples of DAT-positive, cyclin-E-positive neurons (S) and DAT-positive neurons with apoptotic (Hoechst-positive) nuclei (I, J, and T). Total DAT-specific immunoreactivity (pixels), across 9 fields of view at 20×, was quantified in triplicate using Image software (Scion). Cytoplasmic parkin and cyclin E immunoreactivity (mean pixel density), in DAT-positive neurons, were similarly quantified. Data are shown as the mean±SEM. Statistical significance was assessed using one-way ANOVA with Tukey-Kramer post-hoc tests between each group. *=p<0.01; scale bar=150 μm
FIG. 10 further illustrates parkin/cyclin E interaction. […] Total RNA was extracted from granule cell cultures transfected with parkin or vector alone (see FIG. 5), and from frontal cortex tissue from parkin-deficient ARPD (or age-matched control; see FIG. 4). Cyclin E and β-actin mRNA levels were determined by quantitative RT-PCR, as described (Troy et al., Death in the balance: alternative participation of the caspase-2 and -9 pathways in neuronal death induced by nerve growth factor deprivation. J. Neurosci., 21:5007-16, 2001). (B-D) Both cyclin E immunoreactivity (p<0.05) and apoptosis (p<0.05) are increased in DAT-negative neurons of primary midbrain cultures treated with parkin siRNA (and kainate) relative to control siRNA (and kainate). However, the increased cyclin E immunoreactivity and apoptosis are both less marked than in DAT-positive neurons (p<0.05 for both measures). DAT-negative neurons in midbrain cultures were analyzed as in FIG. 7; DAT-positive neuron data is from FIG. 7. Cytoplasmic parkin and cyclin E immunoreactivity (mean pixel density) in DAT-negative neurons were quantified in triplicate, across 9 fields of view at 20×. Data are shown as the mean±SEM. Statistical significance was assessed using one-way ANOVA with Tukey-Kramer post-hoc tests between each group. *=p<0.01; **=p<0.05; scale bar=150 μm (E-J) Human parkin lentiviral vectors efficiently infect cultured murine midbrain dopamine neurons. E13.5 murine midbrain cultures were infected with lentiviruses encoding human parkin or control (GFP), as described in FIG. 8.
Cerebellar granule neurons from P6 mice were purified and transfected essentially as described (Scheiffele et al., Neuroligin expressed in nonneuronal cells triggers presynaptic development in contacting axons. Cell, 101:657-69, 2000). Dissociated cortical neurons from E16.5 mice were prepared and cultured as described (Scheiffele et al., Neuroligin expressed in nonneuronal cells triggers presynaptic development in contacting axons. Cell, 10 1:657-69, 2000). Primary midbrain cultures were prepared from E13.5 mouse embryos, as described (Hynes et al., Induction of midbrain dopaminergic neurons by Sonic hedgehog. Neuron, 15:35-44, 1995). Cells were treated for 24 h with or without kainate (250 or 500 μM as indicated; Sigma) or MPP^+ (1 or 10 μM as indicated; Sigma), stained for 20 min with 0.5 μg/ml Hoechst 33342 (Sigma), and visualized by fluorescence microscopy. For granule cell assays, at least 100 cells in two 20× fields were scored in duplicate for GFP and/or Hoechst signal. For immunohistochemistry, cell cultures were washed twice with PBS, and fixed for 20 min with 4% (w/v) paraformaldehyde. Cells were blocked for 1 h, at room temperature, with 3% (v/v) goat serum in PBS, and then incubated overnight, at 4° C., with specific antibodies, as indicated. […]

[3] = system: dissociated cortical neurons from E16.5 mice; experiment: parkin siRNA knockdown in kainate-treated primary cortical cultures, Western blot; conditions: 25 nM siRNA, then 500 μM kainate 24 h
Experimental: (A) Insect cells were co-infected with baculoviruses expressing Flag-hSel-10 (110 kDa) or Flag-β-TrCP, GST-parkin, HA-CDK2, and either His6-cyclin E or His6-cyclin A1 (50 kDa). Cyclin-E- or cyclin-A1-associated complexes were isolated from cell lysates by nickel-agarose pull-downs, and analyzed by Western blotting, as indicated. (B) Flag-parkin-associated complexes (immunoprecipitated from HeLa cells transfected with Flag-tagged wild-type or T240R mutant parkin) were incubated with recombinant His6-cyclin E, HA-CDK2, E1, UbcH7, and ubiquitin, in the presence of an ATP-regenerating system. Recombinant His6-cyclin E generated in insect cells appears as a 51 -kDa band (arrow) and a minor contaminating species at 95-kDa. The asterisk indicates the position of an immunoglobulin heavy chain. (C) Parkin deficiency leads to cyclin E accumulation. Dissociated cortical neurons from E16.5 mice were cultured as described (see Examples), transfected with 25 nM parkin siRNA or control (DAT) siRNA, and then treated for 24 h with 500 μM kainate. […]
Cerebellar granule neurons from P6 mice were purified and transfected essentially as described (Scheiffele et al., Neuroligin expressed in nonneuronal cells triggers presynaptic development in contacting axons. Cell, 101:657-69, 2000). […] Cells were treated for 24 h with or without kainate (250 or 500 μM as indicated; Sigma) or MPP^+ (1 or 10 μM as indicated; Sigma), stained for 20 min with 0.5 μg/ml Hoechst 33342 (Sigma), and visualized by fluorescence microscopy. For granule cell assays, at least 100 cells in two 20× fields were scored in duplicate for GFP and/or Hoechst signal. […] Cells were washed, incubated for 1 h at room temperature with appropriately-labeled secondary antibodies, and visualized by fluorescence microscopy. For midbrain culture experiments, DAT-specific immunoreactivity (pixels), and cytoplasmic parkin and cyclin E immunoreactivity (mean pixel density), were quantified in triplicate, across nine fields of view, at 20× using Image software (Scion). […]

## C=C(C)[C@H]1CN[C@H](C(=O)O)[C@H]1CC(=O)O [kainate, kainic acid]
[1]
  cyclin E accumulation in granule cell cultures after toxin: led to the accumulation of cyclin E

## 5′ UUCCAAACCGG AUGAGUGGdTdT 3′ [parkin siRNA]
[2]; 25 nM siRNA, 250 μM kainate 24 h, vs control (SERT) siRNA
  cyclin E accumulation in DAT-positive neurons: increased accumulation of cyclin E
[2]; 25 nM siRNA, 250 μM kainate 24 h, vs control siRNA
  apoptosis of DAT-positive neurons (Hoechst): increased apoptosis
[2]; 25 nM siRNA, in the presence of kainate, vs control siRNA
  DAT immunoreactivity in cell bodies and processes: decreased DAT immunoreactivity
[2]; DAT-negative (primarily GABAergic) neurons vs DAT-positive population, p<0.05
  kainate sensitivity of DAT-negative neurons (cyclin E induction and apoptosis): did sensitize DAT-negative neurons to kainate toxicity, but to a significantly lesser extent
[2]; MPP+ 10 μM
  dopamine neuron sensitivity to MPP+: failed to alter dopamine neuron sensitivity
[2]; in the absence of kainate
  cyclin E or DAT immunoreactivity, siRNA alone: failed to alter cyclin E or DAT immunoreactivity
[3]
  cleaved-PARP, marker of apoptosis (Western blot): accumulation of cleaved poly (ADP-ribose) polymerase
[3]; vs control (DAT) siRNA
  cyclin E accumulation (Western blot): increased accumulation of cyclin E
  parkin protein expression (Western blot): significantly reduced parkin expression

## C[n+]1ccc(-c2ccccc2)cc1 [MPP^+, 1-Methyl-4-phenylpyridinium, reference compound]
[2]; MPP+ 10 μM, control siRNA-treated cultures
  DAT immunoreactivity after toxin: led to a reduction in DAT immunoreactivity comparable to the kainate treatment
